Laboratory results taken from publication PMC3877555 (Cell Death & Disease, 2013).
pKd: −log10 of the molar value.

Target: HRas-GTP (Homo sapiens, UniProt P01112)
Assay: SPR
Assay type: binding

Sequence of HRas-GTP (P01112 1-186): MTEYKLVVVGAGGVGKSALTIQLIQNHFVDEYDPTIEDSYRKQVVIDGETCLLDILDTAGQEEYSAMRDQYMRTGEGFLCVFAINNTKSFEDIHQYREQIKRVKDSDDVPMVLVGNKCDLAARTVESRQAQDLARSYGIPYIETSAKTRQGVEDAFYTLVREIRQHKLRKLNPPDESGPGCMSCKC

C[C@@]12C3=CC(=O)OCC3=C[C@H]3OC(=O)[C@](C)([C@H]31)[C@@H](O)[C@H]1O[C@H]12 [WA, Wentilactone A]
pKd: 4.80
